# From patent US11931341B2, “Compositions and methods for the treatment and prevention of muscular dystrophy” (University of Iowa Research Foundation, priority 2018, dated 2024)
# Experiments:
# Type in all cases: in vivo
# δSgcd−/− mouse model [1] = experiment: Autonomic function by radiotelemetry in δSgcd−/− mouse model of limb-girdle muscular dystrophy; details: Sgcd−/− mice, C21 0.03 mg/kg/day SC osmotic minipump for eight weeks
# Protocol: (§1) The effect of C21 was evaluated in a δSgcd−/− mouse model, which is a genetically modified model to imitate limb-girdle muscular dystrophy (LGMD). At 3 weeks of age, δSgcd−/− mice and control mice were administrated C21 (0.03 mg/kg/day, osmotic minipump, SC) or vehicle for eight weeks. Data from conscious mice were collected during the last week of treatment. At the end of the experiment, tissues were harvested for histopathology and molecular gene expression measurements.
# (§2) A radiotelemetry probe (PC10-DSI) that enabled measurement of arterial blood pressure (BP), heart rate (HR) and locomotor activity was inserted into the thoracic aorta through the left common carotid artery under 2% isoflurane anesthesia when the mice were 9 weeks of age. When the mice reached 11-12 weeks of age, changes in BP, HR, and locomotor activity were measured over a minimum of 24 hours at a sampling rate of 500 Hz. In addition, BP was continuously recorded at a high sampling frequency of 2000 Hz for 1-2 hours, to collect data for assessment of spontaneous baroreflex sensitivity (sequence technique), sympathetic tone (HR changes with propranolol) and vagal tone (HR changes with methylatropine).
# δSgcd−/− mouse model [2] = experiment: Spontaneous locomotor activity by radiotelemetry in δSgcd−/− mouse model; details: sgcd−/− mice, C21 0.03 mg/kg/day SC osmotic minipump for eight weeks (FIG. 2)
# Protocol: as §1, §2
# δSgcd−/− mouse model [3] = experiment: Cardiac function by echocardiography in δSgcd−/− mouse model; details: older-aged sgcd−/− mice, echocardiography (FIG. 3)
# Protocol: as §1, with “At 3 weeks of age, δSgcd−/− mice and control mice were administrated C21 (0.03 mg/kg/day, osmotic minipump, SC) or vehicle for eight weeks.” left out
# Echocardiography was performed in telemeter-implanted mice using Philips Sonos 5500 clinical imager in mice sedated with midazolam.
smiles,measurement,setting,value
"CCCCOC(=O)NS(=O)(=O)c1sc(CC(C)C)cc1-c1ccc(Cn2ccnc2)cc1 [Compound C21, N-butyloxycarbonyl-3-(4-imidazol-1-ylmethylphenyl)-5-iso-butylthiophene-2-sulfonamide]",baroreflex sensitivity,δSgcd−/− mouse model [1]; compared to sgcd−/− placebo treated mice (FIG. 1),increase
same,vagal tone,"δSgcd−/− mouse model [1]; compared to sgcd−/− placebo treated mice, HR changes with methylatropine (FIG. 1)",increase
same,sympathetic tone,"δSgcd−/− mouse model [1]; compared to sgcd−/− placebo treated mice, HR changes with propranolol (FIG. 1)",decreased
same,spontaneous locomotor activity,δSgcd−/− mouse model [2],increased the spontaneous locomotor activity to levels comparative to control animals
same,"cardiac function measured as end diastolic volume, end systolic volume and ejection fraction",δSgcd−/− mouse model [3],improved the cardiac function
